target: T1, human kinase Mps-1 (Homo sapiens, UniProt P33981); test: Mps-1 kinase assay (HTRF); format: biochemical; details: lowATP; mean; read-out: Mps1 lowATP mean IC50
T1 construct: N-terminally GST-tagged human full length recombinant Mps-1 kinase; purchased Invitrogen, Karslruhe, Germany PV4071
T1 sequence (P33981 1-857): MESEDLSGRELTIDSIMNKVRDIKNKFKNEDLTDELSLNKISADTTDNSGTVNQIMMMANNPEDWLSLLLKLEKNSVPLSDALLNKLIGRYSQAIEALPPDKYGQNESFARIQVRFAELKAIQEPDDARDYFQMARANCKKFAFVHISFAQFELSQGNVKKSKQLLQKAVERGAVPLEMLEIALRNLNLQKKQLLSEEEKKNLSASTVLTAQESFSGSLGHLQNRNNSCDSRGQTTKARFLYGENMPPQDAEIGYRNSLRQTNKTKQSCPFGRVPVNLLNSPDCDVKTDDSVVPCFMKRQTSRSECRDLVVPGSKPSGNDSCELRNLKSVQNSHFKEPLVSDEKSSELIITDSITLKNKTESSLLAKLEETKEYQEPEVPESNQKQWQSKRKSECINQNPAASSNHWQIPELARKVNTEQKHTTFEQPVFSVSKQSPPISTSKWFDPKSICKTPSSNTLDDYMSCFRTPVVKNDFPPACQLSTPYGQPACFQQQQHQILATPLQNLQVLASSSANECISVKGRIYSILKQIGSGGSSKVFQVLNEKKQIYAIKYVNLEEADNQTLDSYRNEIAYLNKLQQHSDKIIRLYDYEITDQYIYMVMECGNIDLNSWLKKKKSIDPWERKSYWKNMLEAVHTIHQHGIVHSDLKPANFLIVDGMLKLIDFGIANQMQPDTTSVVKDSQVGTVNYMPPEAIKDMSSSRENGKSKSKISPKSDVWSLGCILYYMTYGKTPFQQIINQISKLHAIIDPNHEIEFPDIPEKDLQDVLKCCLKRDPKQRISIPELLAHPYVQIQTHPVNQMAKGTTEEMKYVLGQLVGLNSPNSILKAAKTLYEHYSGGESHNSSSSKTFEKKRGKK
In short: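 HTRF readout: EDTA-stopped reactions incubated 1 h with europium anti-phospho(Ser/Thr) antibody and streptavidin-XLent, emission ratio 665/620 nm after 350 nm excitation. Kinase step: compound pre-bound 15 min to ~1 nM GST-Mps-1, then 60 min at 22 °C with ATP and biotin-peptide substrate; inhibition scaled between no-inhibitor (0%) and no-enzyme (100%) controls.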

| SMILES | IC50 |
| --- | --- |
| Cn1cc(CNc2nc3cc(F)c(F)cc3n3c(-c4ccc(C(=O)NC5CC5)cc4)cnc23)cn1 [Example 2-111, N-cyclopropyl-4-(7,8-difluoro-4-{[(1-methyl-1H-pyrazol-4-yl)methyl]amino}imidazo[1,2-a]quinoxalin-1-yl)benzamide] | 0.0796 µM |
| NS(=O)(=O)CCNc1nc2cc(F)c(F)cc2n2c(-c3ccc(C(=O)NC4CC4)cc3)cnc12 [Example 2-112, N-cyclopropyl-4-{7,8-difluoro-4-[(2-sulfamoylethyl)amino]imidazo[1,2-a]quinoxalin-1-yl}benzamide] | 0.053 µM |
| O=C(NC1CC1)c1ccc(-c2cnc3c(NCC(O)CO)nc4cc(F)c(F)cc4n23)cc1 (centres unmarked) [Example 2-113, N-cyclopropyl-4-{4-[(2,3-dihydroxypropyl)amino]-7,8-difluoroimidazo[1,2-a]quinoxalin-1-yl}benzamide] | 0.197 µM |
| CCCNc1nc2cc(F)c(F)cc2n2c(-c3ccc(NC(=O)NC)cc3)cnc12 [Example 2-114, 1-{4-[7,8-difluoro-4-(propylamino)imidazo[1,2-a]quinoxalin-1-yl]phenyl}-3-methylurea] | 16 µM |
| CNC(=O)Nc1ccc(-c2cnc3c(NCCCN4CCCC4=O)nc4cc(F)c(F)cc4n23)cc1 [Example 2-115, 1-[4-(7,8-difluoro-4-{[3-(2-oxopyrrolidin-1-yl)propyl]amino}imidazo[1,2-a]quinoxalin-1-yl)phenyl]-3-methylurea] | 16.1 µM |
| CNC(=O)Nc1ccc(-c2cnc3c(NCCCO)nc4cc(F)c(F)cc4n23)cc1 [Example 2-116, 1-(4-{7,8-difluoro-4-[(3-hydroxypropyl)amino]imidazo[1,2-a]quinoxalin-1-yl}phenyl)-3-methylurea] | 5.34 µM |
| CCCCNc1nc2cc(F)c(F)cc2n2c(-c3ccc(NC(=O)NC)cc3)cnc12 [Example 2-117, 1-{4-[4-(butylamino)-7,8-difluoroimidazo[1,2-a]quinoxalin-1-yl]phenyl}-3-methylurea] | 19.4 µM |
| CNC(=O)Nc1ccc(-c2cnc3c(NCCNC(C)=O)nc4cc(F)c(F)cc4n23)cc1 [Example 2-118, N-{2-[(7,8-difluoro-1-{4-[(methylcarbamoyl)amino]phenyl}imidazo[1,2-a]quinoxalin-4-yl)amino]ethyl}acetamide] | 12.7 µM |
| CNC(=O)Nc1ccc(-c2cnc3c(NCCCn4ccnc4)nc4cc(F)c(F)cc4n23)cc1 [Example 2-119, 1-[4-(7,8-difluoro-4-{[3-(1H-imidazol-1-yl)propyl]amino}imidazo[1,2-a]quinoxalin-1-yl)phenyl]-3-methylurea] | 7.02 µM |
| CNC(=O)Nc1ccc(-c2cnc3c(NCC4CC4)nc4cc(F)c(F)cc4n23)cc1 [Example 2-120, 1-(4-{4-[(cyclopropylmethyl)amino]-7,8-difluoroimidazo[1,2-a]quinoxalin-1-yl}phenyl)-3-methylurea] | 5.86 µM |
| CNC(=O)Nc1ccc(-c2cnc3c(NCc4ccccn4)nc4cc(F)c(F)cc4n23)cc1 [Example 2-121, 1-(4-{7,8-difluoro-4-[(pyridin-2-ylmethyl)amino]imidazo[1,2-a]quinoxalin-1-yl}phenyl)-3-methylurea] | 6.7 µM |
| CNC(=O)Nc1ccc(-c2cnc3c(NCc4cccnc4)nc4cc(F)c(F)cc4n23)cc1 [Example 2-122, 1-(4-{7,8-difluoro-4-[(pyridin-3-ylmethyl)amino]imidazo[1,2-a]quinoxalin-1-yl}phenyl)-3-methylurea] | 4.08 µM |
| CNC(=O)Nc1ccc(-c2cnc3c(NCc4ccncc4)nc4cc(F)c(F)cc4n23)cc1 [Example 2-123, 1-(4-{7,8-difluoro-4-[(pyridin-4-ylmethyl)amino]imidazo[1,2-a]quinoxalin-1-yl}phenyl)-3-methylurea] | 3.55 µM |
| CCCNc1nc2cc(F)c(F)cc2n2c(-c3ccc(C(=O)NC4CC4)c(Cl)c3)cnc12 [Example 2-124, 2-chloro-N-cyclopropyl-4-[7,8-difluoro-4-(propylamino)imidazo[1,2-a]quinoxalin-1-yl]benzamide] | 0.319 µM |
| O=C(NC1CC1)c1ccc(-c2cnc3c(NCCCN4CCCC4=O)nc4cc(F)c(F)cc4n23)cc1Cl [Example 2-125, 2-chloro-N-cyclopropyl-4-(7,8-difluoro-4-{[3-(2-oxopyrrolidin-1-yl)propyl]amino}imidazo[1,2-a]quinoxalin-1-yl)benzamide] | 9.64 µM |
| COCCNc1nc2cc(F)c(F)cc2n2c(-c3ccc(C(=O)NC4CC4)c(Cl)c3)cnc12 [Example 2-126, 2-chloro-N-cyclopropyl-4-{7,8-difluoro-4-[(2-methoxyethyl)amino]imidazo[1,2-a]quinoxalin-1-yl}benzamide] | 4.89 µM |
| O=C(NC1CC1)c1ccc(-c2cnc3c(NCc4ccccc4F)nc4cc(F)c(F)cc4n23)cc1Cl [Example 2-127, 2-chloro-N-cyclopropyl-4-{7,8-difluoro-4-[(2-fluorobenzyl)amino]imidazo[1,2-a]quinoxalin-1-yl}benzamide] | 3.81 µM |
| O=C(NC1CC1)c1ccc(-c2cnc3c(NCc4ccc(F)cc4)nc4cc(F)c(F)cc4n23)cc1Cl [Example 2-128, 2-chloro-N-cyclopropyl-4-{7,8-difluoro-4-[(4-fluorobenzyl)amino]imidazo[1,2-a]quinoxalin-1-yl}benzamide] | 17.3 µM |
| O=C(NC1CC1)c1ccc(-c2cnc3c(NCCCCO)nc4cc(F)c(F)cc4n23)cc1Cl [Example 2-129, 2-chloro-N-cyclopropyl-4-{7,8-difluoro-4-[(4-hydroxybutyl)amino]imidazo[1,2-a]quinoxalin-1-yl}benzamide] | 2.26 µM |
| O=C(NC1CC1)c1ccc(-c2cnc3c(NCCCO)nc4cc(F)c(F)cc4n23)cc1Cl [Example 2-130, 2-chloro-N-cyclopropyl-4-{7,8-difluoro-4-[(3-hydroxypropyl)amino]imidazo[1,2-a]quinoxalin-1-yl}benzamide] | 3.13 µM |
| CCCCNc1nc2cc(F)c(F)cc2n2c(-c3ccc(C(=O)NC4CC4)c(Cl)c3)cnc12 [Example 2-131, 4-[4-(butylamino)-7,8-difluoroimidazo[1,2-a]quinoxalin-1-yl]-2-chloro-N-cyclopropylbenzamide] | 3.73 µM |
| CC(=O)NCCNc1nc2cc(F)c(F)cc2n2c(-c3ccc(C(=O)NC4CC4)c(Cl)c3)cnc12 [Example 2-132, 4-(4-{[2-(acetylamino)ethyl]amino}-7,8-difluoroimidazo[1,2-a]quinoxalin-1-yl)-2-chloro-N-cyclopropylbenzamide] | 7.74 µM |
| O=C(NC1CC1)c1ccc(-c2cnc3c(NCCCn4ccnc4)nc4cc(F)c(F)cc4n23)cc1Cl [Example 2-133, 2-chloro-N-cyclopropyl-4-(7,8-difluoro-4-{[3-(1H-imidazol-1-yl)propyl]amino}imidazo[1,2-a]quinoxalin-1-yl)benzamide] | 3.29 µM |
| O=C(NC1CC1)c1ccc(-c2cnc3c(NCc4ccccn4)nc4cc(F)c(F)cc4n23)cc1Cl [Example 2-134, 2-chloro-N-cyclopropyl-4-{7,8-difluoro-4-[(pyridin-2-ylmethyl)amino]imidazo[1,2-a]quinoxalin-1-yl}benzamide] | 6.7 µM |
| O=C(NC1CC1)c1ccc(-c2cnc3c(NCc4cccnc4)nc4cc(F)c(F)cc4n23)cc1Cl [Example 2-135, 2-chloro-N-cyclopropyl-4-{7,8-difluoro-4-[(pyridin-3-ylmethyl)amino]imidazo[1,2-a]quinoxalin-1-yl}benzamide] | 1.58 µM |
| O=C(NC1CC1)c1ccc(-c2cnc3c(NCc4ccncc4)nc4cc(F)c(F)cc4n23)cc1Cl [Example 2-136, 2-chloro-N-cyclopropyl-4-{7,8-difluoro-4-[(pyridin-4-ylmethyl)amino]imidazo[1,2-a]quinoxalin-1-yl}benzamide] | 1.71 µM |
| CC(C)CNc1nc2cc(F)c(F)cc2n2c(-c3ccc(C(=O)NC4CC4)c(Cl)c3)cnc12 [Example 2-137, 2-chloro-N-cyclopropyl-4-{7,8-difluoro-4-[(2-methylpropyl)amino]imidazo[1,2-a]quinoxalin-1-yl}benzamide] | 0.391 µM |
| NC(=O)CCNc1nc2cc(F)c(F)cc2n2c(-c3ccc(C(=O)NC4CC4)c(Cl)c3)cnc12 [Example 2-138, 4-{4-[(3-amino-3-oxopropyl)amino]-7,8-difluoroimidazo[1,2-a]quinoxalin-1-yl}-2-chloro-N-cyclopropylbenzamide] | 11.2 µM |
| COCCCNc1nc2cc(F)c(F)cc2n2c(-c3ccc(C(=O)NC4CC4)c(Cl)c3)cnc12 [Example 2-139, 2-chloro-N-cyclopropyl-4-{7,8-difluoro-4-[(3-methoxypropyl)amino]imidazo[1,2-a]quinoxalin-1-yl}benzamide] | 3.85 µM |

— patent US8729082B2, “Substituted imidazoquinoxalines” (Bayer Intellectual Property GmbH, priority 2009, dated 2014)
